From article PMC7068705 (2019) come the findings set out here.

The test system of test [1] is MGSA (RNA, aptamer) GGAUCCCGACUGGCGAGAGCCAGGUAACGAAUGGAUCCACACACACACACACACACACGCAUGCAUACCGACCAGAAUCAUGCAAGUGCGUAAGAUAGUCGCGGGCCGGGAUGCAUGC
Kind of test: fluorogen fluorescence on RNA array. The note with it: 20 mM NaCl, 6 mM MgCl2; 40 mM Tris-HCl pH 7.8, room temperature, 2 h; 40 µM malachite green; immobilised RNA.

The test system of test [2] is SpinachSA (RNA, aptamer) GGGGACGCGACUGAAUGAAAUGGUGAAGGACGGGUCCAGGUGUGGCUGCUUCGGCAGUGCAGCUUGUUGAGUAGAGUGUGAGCUCCGUAACUAGUCGCGUCUUUUUUUUUUUUUUUUUUCGAUCGAUACCGACCAGAAUCAUGCAAGUGCGUAAGAUAGUCGCGGGCCGGGAUCGAUCG
Kind of test: fluorogen fluorescence on RNA array, in situ during transcription. The note with it: 1X MEGAscript T7 transcription buffer, 37 °C, 90 min; 152 µM DFHBI; immobilised RNA.

SMILES strings stand for the structures.

Turning to `CN(C)c1ccc(C(=C2C=CC(=[N+](C)C)C=C2)c2ccccc2)cc1`, the binding entry in test [1] is reported as “yes”.

Regarding `CC1=N/C(=C\c2cc(F)c(O)c(F)c2)C(=O)N1C`, the binding entry in test [2] is listed as “yes”.
